Data as given in US20200164026A1, “Intranasal Delivery of Cell Permeant Therapeutics” (The Trustees of Columbia University in the City of New York, priority 2010, published 2020).

Key:
[1] = Intranasal delivery of Pen1-XBIR3 to rat CNS; western blot (anti-HIS) of coronal brain slices; type: in vivo; conditions: intranasal 60 μl, 1 hr after delivery
Description: The following experiment was performed to ascertain if the Pen1-XBIR3 could also bypass the blood brain barrier via another delivery technique. […] (Dhuria, et al., J Pharm Sci 99 (4), 1654-1673 (2010); Liu, et al., J Stroke Cerebrovasc Dis 13 (1), 16-23 (2004); Liu, et al., J Neurol Sci 187 (1-2), 91-97 (2001)). This delivery method takes advantage of the olfactory pathway to bypass the blood brain barrier, however until now, proteins and compounds delivered via this method in rodent models have targeted extracellular targets, such as cell surface receptors. Since caspases, which are intracellular proteins, are targeted in this experiment, the cargo needed to be delivered intracellularly. […] Pent-XBIR3 was delivered intranasally to rats, after which brains were sliced coronally, and the presence of XBIR3 in the CNS determined by western blotting (FIG. 4A).
(§1) Intranasal Delivery of Pen1-XBIR3. While under isofluorane anesthesia and lying on their backs, Pen1-XBIR3 (36.8 μM) was delivered to rats by administering 6 μl drops to alternating nares every two minutes for 20 minutes (60 μl total delivered). (Thorne, et al., Neuroscience 127 (2), 481-496 (2004)). Intranasal treatment was done prior to induction of stroke. Saline was used as a negative control. Brains were harvested for immunohistochemistry or western blotting.

rats subjected to tMCAo = experiment: Intranasal Pen1-XBIR3 prior to tMCAo in rats; immunohistochemistry counts of neurons and processes in the penumbra; type: in vivo, rat
Description: Brains were analyzed for expression of activated caspase-6, NF-L, MAP-2, and NeuN at 12 hpr and 24 hpr. […] Therefore, caspase-9 inhibition using this delivery technique reduced caspase-6 activity. […] (Coleman, M., Nat Rev Neurosci 6 (11), 889-898 (2005)). […] Unlike axon density, dendrite levels are unaffected at 12 and 24 hpr (FIG. 4D), which can indicate a slower time-course for dendritic degeneration or a different mechanism of degeneration.
Mouse & Rat Stroke Models. Caspase-6 null (C6^−/−) mice (Jackson Laboratories)^48,49 on C57/B16 background were bred with wild-type C57/B16 mice to generate C6^+/− heterozygotes, hets were bred to generate C6^−/− and wild-type littermates for studies. 2-3 month old male C6^−/− and wild-type littermate mice (23-30 g) as well as adult Wistar male rats 250-300 g (Taconic Laboratories) were subjected to transient middle cerebral artery occlusion (tMCAo) as previously published. (Connolly, et al., Neurosurgery 38 (3), 523-531; discussion 532 (1996); Komotar, et al., Nat Protoc 2 (10), 2345-2347 (2007)). Brains were harvested and processed for western blotting or immunohistochemistry as described below. For mouse neurofunctional analysis, a 28 point neurological functional exam was performed as previously described. (Clark, et al., Neurol Res 19 (6), 641-648 (1997)). Additionally, single mice were placed in a fresh cage at each time point (Pre-stroke, 24 hr reperfusion, 7 days reperfusion) short videos (3 min at each time point) were recorded of each mouse's representative spontaneous activity to illustrate motor deficits in the mouse stroke model.
as §1
Immunohistochemistry (IHC), Cell Process Quantification, and Statistical Analysis. Rats and mice were euthanized, perfused with heparin followed by fixation with 4% paraform-aldehyde. Sections were blocked for 1 hr with 10% normal goat serum/1% BSA, incubated with primary antibody overnight at 4° C., washed with PBS-Triton-X100 (0.1%), incubated with the species appropriate Alexa Fluor-conjugated secondary antibody (Invitrogen) for 2 hr at RT. Slides were also stained with Hoechst 33342 for 15 min at RT (1 μg/ml, Invitrogen) or with NeuroTrace fluorescent Nissl stain (1:300, Invitrogen) for 30 min to stain for nuclei. Human samples were additionally treated with Sudan Black (1% in 70% EtOH) for 5 min at RT and washed with 3 changes of PBS (3 min each). For detection of fluorescent staining, sections were imaged with an upright Nikon fluorescent microscope using a SPOT digital camera and with a Perkin-Elmer Spinning Disc Confocal Imaging System. Quantification of neurons and axons was accomplished using the Cell Counter plug-in for ImageJ (NIH). For quantification in the rat brain, 20x magnification images were acquired from the dorsal motor cortex and the […] somatosensory cortex forelimb region; both regions are contained are within the infarct penumbra (FIG. 1A). Single blind counts of processes or neurons were made in both regions of interest and then pooled for each individual animal. Three animals were used per cohort. For mouse brains, 20× magnification images were taken in the S1 somato-sensory cortex forelimb region and similar counts were made as described below. Counts were made for NF-L/MAP-2 positive processes and NeuN positive cell bodies. Comparisons between groups used the student's t test, p-value: 0.05.

Pen1-XBIR3: BIR3 domain from XIAP, a specific caspase-9 inhibitor, disulfide-linked to Penetratin1 cell transduction peptide (SEQ ID NO: 10)
presence of XBIR3 in brain slices (anterior to posterior) [1]: delivered to all slices of the brain
presence of XBIR3 in brain slices (anterior to posterior) ([1]; listed as Pent-XBIR3): throughout the rat CNS
MAP-2 positive processes (dendrites) (rats subjected to tMCAo; 12 hpr, n=3): 162.0±19.22
NF-L positive axons (rats subjected to tMCAo; 12 hpr, n=3): 179.7±14.89
NeuN positive cells (rats subjected to tMCAo; 12 hpr, n=3): 477.3±28.95
MAP-2 positive processes (dendrites) (rats subjected to tMCAo; 24 hpr, n=3): 138.3±6.766
NeuN positive cells (rats subjected to tMCAo; 24 hpr, n=3): 453.7±25.44
NeuN positive cells (rats subjected to tMCAo; 24 hpr, n=3, listed as Pent-XBIR3): significant protection against neuron loss
